For test [1], the system named is women requesting emergency contraception after unprotected intercourse. The test is described as follows: Meta-analysis of Phase II and Phase III emergency contraception studies: pregnancy rate by WHO BMI class. Type of test: in vivo. The following applies: for Odds Ratio [95% CI]: ulipristal acetate vs levonorgestrel. Here is the method:
The effect of BMI in pooled phase III studies was assessed by comparing pregnancy rates among sub-groups of the study populations according to WHO weight classes. Pregnancy rates increased starting from BMI>25, and for women with a BMI>30, the 95% CI of the observed pregnancy rate overlapped with the expected pregnancy rate. […] This Phase II, prospective, multicenter, randomized, double-blind study was performed to compare the efficacy of a single 50 mg dose of ulipristal acetate (unmicronized in gelatine capsule) with two 0.75 mg doses of levonorgestrel used as an emergency postcoital contraceptive within 72 hours of unprotected intercourse. The study was carried out in seven sites in seven different states in the United States. Women (aged ≧18 years old) not using hormonal contraception and who requested emergency contraception within 72 hours (3 days) after unprotected coitus defined by lack of contraceptive use, condom breakage or other barrier contraceptive method failure were included. Subjects were required to have a history of regular menstrual cycles (mean length of 24-42 days with intra-individual variation of ±5 days). At least one normal menstrual cycle (two menses) was required after delivery, abortion, or discontinuation of hormonal contraception. Subjects were excluded from the study if they were pregnant at screening or enrollment (assessed by a high-sensitivity urine pregnancy test), pregnant or breastfeeding within the 2 months before screening, using an intra-uterine device (IUD) or female or male sterilization as a contraceptive method, uncertain about the date of the last menstrual period (±3 days), had been nauseated or vomited in the 2 weeks before screening, had used oral glucocorticoid replacement therapy in the year before the screening, or were currently enrolled in any other investigational trial. Each woman returned for a follow-up visit 5 to 7 days after the expected onset of their next menstrual period and a high-sensitivity urine pregnancy test was performed. The primary objective was to compare the efficacy, as determined by pregnancy prevention, of 50 mg ulipristal acetate and levonorgestrel used as an emergency postcoital contraceptive within 72 hours of unprotected intercourse. […] This was a prospective, single-blind (subject and sponsor blind, investigator not blind), randomized, multicenter, 2-arm parallel comparative study designed to evaluate the efficacy, safety and tolerability of a single dose of ulipristal acetate (30 mg) compared to levonorgestrel (1.5 mg) administered for EC within 120 hours after unprotected intercourse. It was performed in 10 centers in Europe and 25 centers in the US. Women (aged ≧16 years), with regular menstrual cycles (between 24 and 35 days and intra-individual variations less than or equal to 5 days), who presented for EC within 120 hours after unprotected intercourse at a participating study site and who met the inclusion/exclusion criteria were enrolled into the study after they signed informed consent form. Subjects were excluded from the study in case of ongoing pregnancy or breast-feeding or current use of hormonal contraception or IUD. The study medication (ulipristal acetate 30 mg or levonorgestrel 1.5 mg) was administered according to a random allocation procedure generated electronically. Treatment was administered orally immediately after all eligibility criteria (including negative urine pregnancy test) had been verified. […] The primary objective of the study was to provide evidence that the pregnancy rate observed after taking ulipristal acetate (30 mg) within 72 hours of unprotected intercourse is lower than the expected pregnancy rate in the absence of EC. […]

The conditions of test [2]: used within 72 hours of UPI; cited from earlier work.
The conditions of test [3]: in vivo; cited from earlier work.
The mark [4] stands for this setting: BMI class (WHO) Normal weight (18.5 to 24.99), N=2087.
The mark [5] stands for this setting: BMI class (WHO) Obese grade I (30 to 34.99), N=285.
Setting [6] is: BMI class (WHO) Obese grade II (35 to 39.99), N=107.
[7] abbreviates: BMI class (WHO) Obese grade III (≧40), N=77.
[8] abbreviates: BMI class (WHO) Overweight (25 to 29.99), N=744.
Where [9] appears, read: BMI class (WHO) Underweight (<18.5), N=145.
Setting [10] is: grouped BMI class Obese II and more, N=184.
Where [11] appears, read: grouped BMI class Overweight & Obese I, N=1029.
[12] abbreviates: grouped BMI class Underweight & Normal, N=2232.

Structures are written as SMILES.

For the molecule `CC(=O)O[C@]1(C(C)=O)CC[C@H]2[C@@H]3CCC4=CC(=O)CCC4=C3[C@@H](c3ccc(N(C)C)cc3)C[C@@]21C` [Ulipristal acetate, 17α-acetoxy-11β-[4-N,N-dimethylamino-phenyl)-19-norpregna-4,9-diene-3,20-dione], the Pregnancy rate came to 1.16% in test [1] (setting [4]); 1.47% in test [1] (setting [5]); 3.64% in test [1] (setting [6]); 5.56% in test [1] (setting [7]); 1.06% in test [1] (setting [8]); 0% in test [1] (setting [9]). In addition, the “Pregnancy rate” value in test [1] (setting [10]) was 4.40%; in test [1] (setting [11]), 1.17%; in test [1] (setting [12]), 1.08%. In addition, the “efficacy by BMI group” value in test [1] (obese grade II (BMI 35 and above) subjects) was “decreased”; in test [1] (underweight and normal (BMI below 25) and overweight and obese grade I (BMI 25-34.99) subjects) it was “remained constant”. The “Odds Ratio [95% CI]” value was 1.02 in test [1] (Obese II and more, CI [0.23, 4.44], NS); 0.31 in test [1] (Overweight & Obese I, CI [0.11, 0.74], p = 0.0073); 0.81 in test [1] (Underweight & Normal, CI [0.37, 1.73], NS). Further, the “risk of pregnancy divided by (ulipristal acetate versus levonorgestrel)” value in test [1] (women overweight or with grade I obesity (BMI 25-34.99), p=0.0073) is 3. The efficacy versus levonorgestrel result in test [1] (women with a BMI>25) is given as “significantly more effective than levonorgestrel”. Further, the “efficacy for preventing pregnancy versus levonorgestrel” value in test [2] was “as efficacious as levonorgestrel”. In addition, in test [3], the effect on ovulation result was “inhibits or delays ovulation in a dose-dependent fashion”.
In the case of `C#C[C@]1(O)CC[C@H]2[C@@H]3CCC4=CC(=O)CC[C@@H]4[C@H]3CC[C@@]21CC` [Levonorgestrel, levonorgestrel], the Pregnancy rate came out at 1.33% in test [1] (setting [4]); 6.71% in test [1] (setting [5]); 3.85% in test [1] (setting [6]); 4.88% in test [1] (setting [7]); 2.45% in test [1] (setting [8]); 1.43% in test [1] (setting [9]). For the same molecule, the entries for the “Pregnancy rate” value in test [1] (setting [10]), in test [1] (setting [11]) and in test [1] (setting [12]) were 4.30%, 3.68% and 1.34%, respectively.

The values are drawn from patent US8962603B2, “Method for post coital contraception in overweight or obese female subjects using ulipristal acetate” (Laboratoire HRA-Pharma, priority 2010, dated 2015).
